Measured values published in PMC3339042 (2012).

Tests used:
ubiquitin E1 (UBA1) [1] = biological target: T1, ubiquitin E1 (UBA1) (Homo sapiens, UniProt P22314); test: […]-AMP:[α-32P]-ATP exchange TLC assay; format: biochemical
T1 sequence (P22314 2-1058): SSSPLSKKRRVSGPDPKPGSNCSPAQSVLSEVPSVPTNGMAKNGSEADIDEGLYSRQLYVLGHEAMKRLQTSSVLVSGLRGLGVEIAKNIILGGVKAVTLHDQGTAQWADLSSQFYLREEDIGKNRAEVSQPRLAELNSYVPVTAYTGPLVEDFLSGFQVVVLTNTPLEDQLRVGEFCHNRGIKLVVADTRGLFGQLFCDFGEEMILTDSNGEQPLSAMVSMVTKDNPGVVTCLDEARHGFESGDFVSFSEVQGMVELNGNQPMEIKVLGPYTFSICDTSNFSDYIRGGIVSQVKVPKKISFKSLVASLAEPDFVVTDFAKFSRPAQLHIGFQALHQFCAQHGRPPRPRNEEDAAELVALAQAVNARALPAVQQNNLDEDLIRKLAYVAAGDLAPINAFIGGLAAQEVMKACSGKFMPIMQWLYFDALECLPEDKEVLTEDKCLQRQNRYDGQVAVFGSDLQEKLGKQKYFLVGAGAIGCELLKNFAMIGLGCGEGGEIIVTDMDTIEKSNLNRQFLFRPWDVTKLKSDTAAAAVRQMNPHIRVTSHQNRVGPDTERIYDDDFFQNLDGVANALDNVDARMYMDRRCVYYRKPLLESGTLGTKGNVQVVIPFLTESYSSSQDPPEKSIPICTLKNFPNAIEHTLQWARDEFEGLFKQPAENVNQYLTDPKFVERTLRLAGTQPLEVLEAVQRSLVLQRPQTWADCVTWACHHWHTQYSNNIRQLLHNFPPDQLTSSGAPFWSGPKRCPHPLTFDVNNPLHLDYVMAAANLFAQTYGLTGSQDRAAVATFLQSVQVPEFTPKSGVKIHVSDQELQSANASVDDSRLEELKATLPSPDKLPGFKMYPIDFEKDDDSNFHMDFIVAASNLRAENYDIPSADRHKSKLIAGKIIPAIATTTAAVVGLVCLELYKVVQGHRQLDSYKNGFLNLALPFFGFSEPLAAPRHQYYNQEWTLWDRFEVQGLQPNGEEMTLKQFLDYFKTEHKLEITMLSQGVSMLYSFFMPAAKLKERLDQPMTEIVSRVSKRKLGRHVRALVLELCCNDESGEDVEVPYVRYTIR

ubiquitin E1 (UBA1) [2] = biological target: T1, ubiquitin E1 (UBA1); test: E1-ubiquitin thioester gel assay with fluorescein-ubiquitin without E2; format: biochemical

Row | SMILES | IC50 (ubiquitin E1 (UBA1) [1]) | IC50 (ubiquitin E1 (UBA1) [2])
1 | CCOC(=O)c1ccc(N2NC(=O)C(=Cc3ccc([N+](=O)[O-])o3)C2=O)cc1 [PYR-41] | 6.4 µM | 
2 | CCCCCCCCCCNCCSSCc1ccc(Cl)cc1 [compound 1, NSC624206] |  | ~9 µM
